{"source": "paper PMC11375786", "about": "“Induction of Paraptotic Cell Death in Cancer Cells by Triptycene–Peptide Hybrids and the Revised Mechanism of Paraptosis II” (Biochemistry, 2024)", "key": {"A549 cells [1]": {"system": "A549 cells", "assay": "cells", "method": "(§1) HeLa S3 cells (human cervical carcinoma) were cultured in Minimum essential medium (MEM) containing 10% FBS, penicillin, and streptomycin. A549 cells (human lung carcinoma) and IMR90 cells (human fetal lung fibroblast) were cultured in Dulbecco’s modified Eagle’s medium (DMEM) with 10% FBS, penicillin, and streptomycin. All cells were cultured at 37 °C under a humidified atmosphere containing 5% CO2.\n(§2) Jurkat, HeLa-S3, A549 cells (2.0 × 10^5 cells/mL) and IMR90 cells (1.0 × 10^5 cells/mL) were incubated in the presence of 3–7 for 1 h, and etoposide, cisplatin and celastrol for 24 h (50 μL) in cell culture medium under CO2 at 37 °C in 96-well plates (BD Falcon). MTT reagent (5 mg/mL) in PBS (10 μL) was then added to the cells. After incubation at 37 °C for 4 h, a formazan lysis solution (10% sodium dodecyl sulfate (SDS) in 0.01 N HCl) (100 μL) was added and the resultant solution was incubated overnight under the same conditions, which was followed by measurement of the absorbance at 570 nm using a microplate reader (ARVO, PerkinElmer)."}, "HeLa-S3 cells [2]": {"system": "HeLa-S3 cells", "assay": "cells", "method": "as §1, §2"}, "IMR90 cells [3]": {"system": "IMR90 cells", "assay": "cells", "method": "as §1, §2"}, "Jurkat cells [4]": {"system": "Jurkat cells", "assay": "cells", "method": "as §1, §2"}, "trypsin": {"target": "trypsin (Sus scrofa, UniProt P00761)", "sequence (P00761 9-231)": "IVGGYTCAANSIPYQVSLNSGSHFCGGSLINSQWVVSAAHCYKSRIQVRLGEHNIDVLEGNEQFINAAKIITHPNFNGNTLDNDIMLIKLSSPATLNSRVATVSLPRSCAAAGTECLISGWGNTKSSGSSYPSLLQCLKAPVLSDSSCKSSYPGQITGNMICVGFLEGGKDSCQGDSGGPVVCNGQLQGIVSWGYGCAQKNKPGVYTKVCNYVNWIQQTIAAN", "assay": "Stability after treatment with trypsin (RP-HPLC)", "settings": "10 μM, trypsin 5 U/mL, 10 mM HEPES pH 7.5, 1 h, 37 °C", "experimental": "4 and 5 (10 μM) were incubated with trypsin (5 U/mL) in 10 mM 2-[4-(2-hydroxyethyl)-1-piperazinyl]ethanesulfonic acid ((HEPES), pH = 7.5) for 1 h at 37 °C and then analyzed via RP-HPLC (CH3CN (0.1% TFA)/H2O (0.1% TFA) = 20/80 to 70/30 (30 min), 1.0 mL/min)."}, "Jurkat cells [5]": {"system": "Jurkat cells", "format": "cell-based", "settings": "1 h", "method": "MTT reagent (5 mg/mL) in PBS (10 μL) was then added to the cells. After incubation at 37 °C for 4 h, a formazan lysis solution (10% sodium dodecyl sulfate (SDS) in 0.01 N HCl) (100 μL) was added and the resultant solution was incubated overnight under the same conditions, which was followed by measurement of the absorbance at 570 nm using a microplate reader (ARVO, PerkinElmer)."}, "[6]": {"system": "Ca^2+ concentrations in mitochondria and cytosol in Jurkat cells", "assay": "Rhod-2/AM and Rhod-4/AM emission (mitochondrial and cytosolic Ca2+) in Jurkat cells", "format": "cell-based", "settings": "4 2.5 μM, 0–60 min", "method": "(§3) Jurkat, HeLa-S3, and A549 cells (2.0 × 10^5 cells) were preincubated with Rhod-2/AM (final concentration = 5 μM) or Rhod-4/AM (final concentration = 5 μM) in medium under 5% CO2 at 37 °C for 30 min and then treated with 4 (final concentration = 2.5, 5, or 10 μM) for 0, 15, 30, 45, and 60 min. HeLa-S3 and A549 cells were detached by accutase, immediately after which the cells were suspended in 300 μL of cell culture medium and then analyzed on a flow cytometer (FACS Calibur cytometer, Becton), and the data were analyzed using the FlowJo software (FlowJo, LCC).\nJurkat, HeLa-S3, A549, and IMR90 cells (2.0 × 10^5 cells) were stained with Rhod-2/AM or Rhod-4/AM (final concentration = 5 μM) for 30 min at 37 °C under 5% CO2. […] After washing with PBS, the cells were observed via fluorescence microscopy (BZ-X800, Keyence) using a Greiner CELLview Petri dish (35 × 10 mm^2). […]\n(§4) Jurkat, HeLa-S3, A549, and IMR90 cells (8.0 × 10^4 cells) were incubated with CCCP or 2-APB for 1 h and then stained with Rhod-2/AM or Rhod-4/AM (final concentration = 5 μM) for 30 min at 37 °C under 5% CO2. The cells were washed with PBS and were treated with 4 (final concentration = 2.5, 5, or 10 μM) in PBS for 0–60 min at 37 °C in a microplate reader (ARVO, PerkinElmer). Excitation at 540 nm and emission at 590 nm were used for the measurement of Rhod-2/AM and Rhod-4/AM on the microplate reader."}, "[7]": {"system": "Ca^2+ concentrations in mitochondria and cytosol in HeLa-S3 cells", "assay": "Rhod-2/AM and Rhod-4/AM emission (mitochondrial and cytosolic Ca2+) in HeLa-S3 cells", "format": "cell-based, human", "settings": "4 5 μM 1 h", "method": "as §3\n(§5) Jurkat, HeLa-S3, A549, and IMR90 cells (2.0 × 10^5 cells) were stained with Rhod-2/AM or Rhod-4/AM (final concentration = 5 μM) for 30 min at 37 °C under 5% CO2. The cells were washed with PBS and were treated with 4 (final concentration = 2.5, 5, or 10 μM) in cell culture medium for 30 and 60 min at 37 °C under 5% CO2. To test the effect of celastrol and cisplatin in HeLa-S3 and A549 cells, the cells were incubated with celastrol (final concentration = 100 μM) and cisplatin (final concentration = 100 μM) for 2–6 h. After washing with PBS, the cells were observed via fluorescence microscopy (BZ-X800, Keyence) using a Greiner CELLview Petri dish (35 × 10 mm^2). Emission images were observed using a TRITC filter (excitation 540 nm, emission 605 nm).\nas §4"}, "[8]": {"system": "Ca^2+ concentrations in mitochondria and cytosol in A549 cells", "assay": "Rhod-2/AM and Rhod-4/AM emission (mitochondrial and cytosolic Ca2+) in A549 cells", "format": "cell-based, human", "settings": "4 10 μM 1 h; celastrol 100 μM 2–6 h", "method": "as §3, §5, §4"}, "[9]": {"system": "Ca^2+ concentrations in mitochondria in IMR90 cells", "assay": "Rhod-2/AM emission (mitochondrial Ca2+) in IMR90 cells", "format": "cell-based, human", "settings": "4 5 μM, 0–60 min", "method": "as §5, §4"}, "Jurkat cells [10]": {"system": "Jurkat cells", "assay": "Costaining of ER and mitochondria (ERTracker Red, MitoTracker Green), confocal microscopy, Jurkat cells", "format": "cell-based", "settings": "4 2.5 μM, 15 min", "method": "(§6) Jurkat, HeLa-S3, A549, and IMR90 cells (2.0 × 10^5 cells) were incubated with 4 (final concentration = 2.5 μM (for Jurkat), 5 μM (for HeLa-S3), 10 μM (for A549) and 5 μM and 50 μM (for IMR90)) in cell culture medium at 37 °C under 5% CO2. After incubation, MitoTracker Green (final concentration = 100 nM (for Jurkat) or 500 nM (for HeLa-S3, A549 and IMR90)), or ERTracker Red (final concentration = 500 nM (for Jurkat) or 1 μM (for HeLa-S3, A549 and IMR90)) were applied for 1 h under the same conditions. After washing with PBS, the cells were observed via confocal fluorescence microscopy (FluoView, FV-1000, Olympus). Excitation at 473 nm and emissions from 485 to 585 nm were used for detecting the MitoTracker Green. Excitation at 559 nm and emissions from 570 to 670 nm were used for detecting the ERTracker Red. Exposure time was 20 μs/pixel."}, "HeLa-S3 cells [11]": {"system": "HeLa-S3 cells", "assay": "Costaining of ER and mitochondria (ERTracker Red, MitoTracker Green), confocal microscopy, HeLa-S3 cells", "format": "cell-based, human", "settings": "4 5 μM, 5 and 10 min; celastrol 100 μM", "method": "as §6"}, "A549 cells [12]": {"system": "A549 cells", "assay": "Costaining of ER and mitochondria (ERTracker Red, MitoTracker Green), confocal microscopy, A549 cells", "format": "cell-based, human", "settings": "4 10 μM, 15 min; celastrol 100 μM", "method": "as §6"}, "IMR90 cells [13]": {"system": "IMR90 cells", "assay": "Costaining of ER and mitochondria (ERTracker Red, MitoTracker Green), confocal microscopy, IMR90 cells", "format": "cell-based, human", "settings": "4 5 or 50 μM, 15 or 60 min", "method": "as §6"}, "[14]": {"system": "labile Fe^2+ in mitochondria of Jurkat cells", "assay": "Mito-FerroGreen fluorescence microscopy in Jurkat cells", "format": "cell-based", "settings": "4 2.5 μM 1 h; celastrol 5 μM, etoposide 5 μM, cisplatin 100 μM 24 h", "method": "(§7) Jurkat cells (2.0 × 10^5 cells) were treated with 4 (2.5 μM), etoposide (5 μM), cisplatin (100 μM) and celastrol (5 μM) and stained with Mito-FerroGreen (a probe for labile Fe^2+ in mitochondria) (5 μM) and zinquin (a probe for intracellular Zn^2+) (25 μM). The cell images were observed via fluorescence microscopy."}, "[15]": {"system": "intracellular Zn^2+ in Jurkat cells", "assay": "Zinquin fluorescence microscopy in Jurkat cells", "format": "cell-based", "settings": "4 2.5 μM 1 h; celastrol 5 μM, etoposide 5 μM, cisplatin 100 μM 24 h", "method": "as §7"}}, "note": "Where two headings read alike, the source gives them in different places. Numbered stars: 1 amine (or outer) side, 2 acyl side, 3 side chain; on linkers, the order of the positions; unused ones are H or OH. Bridge positions count the residues as written; N and C are the ends. Square brackets hold non-standard residues; d marks the D form. Peptide text beside a SMILES is read from it. I, II: the chains in the order shown. X1 = O=C(COc1cccc2c1C1c3c(OCC(=O)NCCCCCCCCN[*:2])cccc3C2c2cccc(OCC(=O)NCCCCCCCCN[*:3])c21)NCCCCCCCCN[*:1]; Cha = N[C@@H](CC1CCCCC1)C(=O)O"}
{"smiles": "NCCCC[C@@H]1NC(=O)CNC(=O)[C@H](CCC(=O)NCCCCCCCCNC(=O)COc2cccc3c2C2c4c(OCC(=O)NCCCCCCCCNC(=O)CC[C@@H]5NC(=O)[C@H](CC6CCCCC6)NC(=O)[C@H](CCCCN)NC(=O)[C@H](CCCCN)NC(=O)[C@H](CCCCN)NC(=O)CNC5=O)cccc4C3c3cccc(OCC(=O)NCCCCCCCCNC(=O)CC[C@@H]4NC(=O)[C@H](CC5CCCCC5)NC(=O)[C@H](CCCCN)NC(=O)[C@H](CCCCN)NC(=O)[C@H](CCCCN)NC(=O)CNC4=O)c32)NC(=O)[C@H](CC2CCCCC2)NC(=O)[C@H](CCCCN)NC(=O)[C@H](CCCCN)NC1=O", "note": "[compound 5] (I: cyclo(KKK[Cha]EG) / II: cyclo(KKK[Cha]EG) / III: cyclo(KKK[Cha]EG); linker I:5-II:5-III:5 via X1)", "values": [{"measurement": "EC50", "setting": "A549 cells [1]; read-out: EC50 against A549 cells, MTT, incubation 1 h at 37 °C", "result": "9500 ± 100", "unit": "nM"}, {"measurement": "EC50", "setting": "HeLa-S3 cells [2]; read-out: EC50 against HeLa-S3 cells, MTT, incubation 1 h at 37 °C", "result": "8500 ± 400", "unit": "nM"}, {"measurement": "EC50", "setting": "IMR90 cells [3]; read-out: EC50 against IMR90 cells, MTT, incubation 1 h at 37 °C", "result": "> 25000", "unit": "nM"}, {"measurement": "EC50", "setting": "Jurkat cells [4]; read-out: EC50 against Jurkat cells, MTT, incubation 1 h at 37 °C", "result": "1600 ± 100", "unit": "nM"}, {"measurement": "Stability against trypsin digestion", "setting": "trypsin", "result": "negligible decomposition"}]}
{"smiles": "NCCCC[C@H](NC(=O)[C@H](CCCCN)NC(=O)[C@@H](N)CCCCN)C(=O)N[C@@H](CC1CCCCC1)C(=O)NCC(=O)NCCCCCCCCNC(=O)COc1cccc2c1C1c3c(OCC(=O)NCCCCCCCCNC(=O)CNC(=O)[C@H](CC4CCCCC4)NC(=O)[C@H](CCCCN)NC(=O)[C@H](CCCCN)NC(=O)[C@@H](N)CCCCN)cccc3C2c2cccc(OCC(=O)NCCCCCCCCNC(=O)CNC(=O)[C@H](CC3CCCCC3)NC(=O)[C@H](CCCCN)NC(=O)[C@H](CCCCN)NC(=O)[C@@H](N)CCCCN)c21", "note": "[compound 4]", "values": [{"measurement": "EC50", "setting": "A549 cells [1]; 1 h", "result": "2400 ± 100", "unit": "nM"}, {"measurement": "EC50", "setting": "HeLa-S3 cells [2]; 1 h", "result": "1600 ± 100", "unit": "nM"}, {"measurement": "EC50", "setting": "IMR90 cells [3]; 1 h", "result": "> 12500", "unit": "nM"}, {"measurement": "EC50", "setting": "IMR90 cells [3]; 5 h", "result": 4400, "unit": "nM"}, {"measurement": "EC50", "setting": "Jurkat cells [4]; 1 h", "result": "700 ± 100", "unit": "nM"}, {"measurement": "EC50", "setting": "Jurkat cells [5]", "result": 1800, "unit": "nM"}, {"measurement": "Emission of Rhod-4/AM (cytosolic Ca2+) in Jurkat cells", "setting": "[6]", "result": "moderate∼weak enhancement"}, {"measurement": "Emission of Rhod-4/AM (cytosolic Ca2+) in HeLa-S3 cells", "setting": "[7]; celastrol 100 μM 2–6 h", "result": "negligible enhancement"}, {"measurement": "Emission of Rhod-2/AM (mitochondrial Ca2+) in HeLa-S3 cells", "setting": "[7]; celastrol or cisplatin 100 μM 2–6 h", "result": "enhancement of the red emission"}, {"measurement": "Emission of Rhod-2/AM (mitochondrial Ca2+) in A549 cells", "setting": "[8]", "result": "enhancement of the red emission"}, {"measurement": "Emission of Rhod-4/AM (cytosolic Ca2+) in A549 cells", "setting": "[8]", "result": "negligible enhancement"}, {"measurement": "Emission of Rhod-2/AM (mitochondrial Ca2+) in IMR90 cells", "setting": "[9]", "result": "somewhat slower emission enhancement"}, {"measurement": "Overlap of emission from MitoTracker Green and ERTracker Red in Jurkat cells", "setting": "Jurkat cells [10]", "result": "considerable overlap"}, {"measurement": "Overlap of emission from MitoTracker Green and ERTracker Red in HeLa-S3 cells", "setting": "HeLa-S3 cells [11]", "result": "considerable overlap"}, {"measurement": "Overlap of emission from MitoTracker Green and ERTracker Red in A549 cells", "setting": "A549 cells [12]", "result": "considerable overlap"}, {"measurement": "Overlap of emission from MitoTracker Green and ERTracker Red in IMR90 cells", "setting": "IMR90 cells [13]", "result": "weak overlap"}, {"measurement": "Emission from Mito-FerroGreen (free Fe2+ in mitochondria) in Jurkat cells", "setting": "[14]", "result": "negligibly enhanced"}, {"measurement": "Emission from zinquin (intracellular free Zn2+) in Jurkat cells", "setting": "[15]", "result": "negligibly enhanced"}]}
